Experimental data: patent publication US9067949B2, “Benzofuro[3,2-c] pyridines and related analogs as serotonin sub-type 6 (5-HT6) modulators for the treatment of obesity, metabolic syndrome, cognition and schizophrenia” (Albany Molecular Research, Inc., priority 2011, dated 2015)

Molecular target: human 5-HT6 receptor (Homo sapiens (Human), UniProt P50406)
Test: 5-HT6 radioligand binding assay (SPA format, [N-methyl-3H]-LSD)
Details: human 5-HT6 receptor membranes, 10 nM [N-methyl-3H]-LSD; Ki by Cheng-Prusoff; read-out: human 5HT6 Ki
Experimental: The relative affinities of the various compounds for the 5-HT6 receptor were measured in a radioligand binding assay, using a scintillation proximity assay (SPA) format.
For binding analysis vs. the human receptor, samples were incubated in 50 mM Tris-HCl, pH 7.5, 5 mM MgCl2, 1 mM EDTA (4% DMSO final) with 10 nM [N-methyl-^3H]-LSD (Perkin Elmer), 2.5 ng of human 5-HT6 receptor membranes (Millipore) and 50 μg SPA beads (PVT-PEI-WGA, GE Healthcare) per well in a final volume of 0.2 mL. […] Binding reactions were performed in PicoPlate96 microtiter plates (Perkin Elmer) by consecutively adding 50 μL of each competing compound or buffer, SPA beads, radioligand and 5-HT6 receptor membranes. After an overnight incubation at room temperature on a Nutator mixer, plates were centrifuged for 15 min at 1,500 rpm, followed by incubation in the dark for 10 min. […] Total binding control contained compound dilution buffer only; nonspecific binding is determined in the presence of 100 μM 5-hydroxytryptamine. Specific binding was determined by subtracting nonspecific binding from total binding.
All experiments were performed in duplicate using ten concentrations of competing ligand, with clozapine included as a control in every run. IC50 values were determined from specific binding data using XLfit4.1 curve fitting software from IDBS Ltd. The inhibition constant (Ki) was calculated using the Cheng-Prusoff equation: (Ki=IC50/(1+(L/KD)), where L=concentration of radioligand in the assay, and KD=affinity of the radioligand for the receptor.

human 5-HT6 receptor, sequence (P50406 whole entry): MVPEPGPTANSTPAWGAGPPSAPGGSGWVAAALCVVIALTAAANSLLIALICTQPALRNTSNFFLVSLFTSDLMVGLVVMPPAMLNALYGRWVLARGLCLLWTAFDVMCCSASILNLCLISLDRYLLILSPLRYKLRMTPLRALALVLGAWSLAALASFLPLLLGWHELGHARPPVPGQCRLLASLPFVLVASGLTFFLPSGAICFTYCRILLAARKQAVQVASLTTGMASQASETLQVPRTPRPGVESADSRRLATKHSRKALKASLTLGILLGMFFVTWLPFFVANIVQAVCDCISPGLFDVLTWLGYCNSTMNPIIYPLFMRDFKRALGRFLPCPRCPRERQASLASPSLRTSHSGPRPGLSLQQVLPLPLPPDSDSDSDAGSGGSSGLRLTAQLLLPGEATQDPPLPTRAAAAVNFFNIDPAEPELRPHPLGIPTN

Compound | Ki
O=S(=O)(c1ccc(C(O)C(F)(F)F)cc1)c1cc(Cl)c2oc3c(c2c1)CNCC3 (centres unmarked) [Example 131] | 7.6 nM
O=S(=O)(c1cccc(C(O)C(F)(F)F)c1)c1cc(Cl)c2oc3c(c2c1)CNCC3 (centres unmarked) [Example 132] | 3.3 nM
O=S(=O)(c1cc(Cl)c2oc3c(c2c1)CNCC3)c1csc2ccccc12 [Example 133] | 0.26 nM
O=S(=O)(c1ccc2sccc2c1)c1cc(Cl)c2oc3c(c2c1)CNCC3 [Example 134] | 0.55 nM
CC(O)c1ccccc1S(=O)(=O)c1cc(Cl)c2oc3c(c2c1)CNCC3 (centres unmarked) [Example 135] | 20 nM
CC(O)c1cccc(S(=O)(=O)c2cc(Cl)c3oc4c(c3c2)CNCC4)c1 (centres unmarked) [Example 136] | 3 nM
CC(O)c1ccc(S(=O)(=O)c2cc(Cl)c3oc4c(c3c2)CNCC4)cc1 (centres unmarked) [Example 137] | 5.6 nM
C[C@H](O)c1cccc(S(=O)(=O)c2cc(Cl)c3oc4c(c3c2)CNCC4)c1 [Example 138] | 5.1 nM
C[C@@H](O)c1cccc(S(=O)(=O)c2cc(Cl)c3oc4c(c3c2)CNCC4)c1 [Example 139] | 2.7 nM
C[C@H](O)c1ccc(S(=O)(=O)c2cc(Cl)c3oc4c(c3c2)CNCC4)cc1 [Example 140] | 16 nM
C[C@@H](O)c1ccc(S(=O)(=O)c2cc(Cl)c3oc4c(c3c2)CNCC4)cc1 [Example 141] | 3.1 nM
CC(C)(O)c1ccccc1S(=O)(=O)c1cc(Cl)c2oc3c(c2c1)CNCC3 [Example 142] | 25 nM
O=S(=O)(c1ccc2[nH]ccc2c1)c1cc(Cl)c2oc3c(c2c1)CNCC3 [Example 143] | 0.13 nM
CS(=O)(=O)N1CCc2oc3c(Cl)cc(S(=O)(=O)c4ccccc4)cc3c2C1 [Example 144] | 492 nM
CN(C)CC(=O)N1CCc2oc3c(Cl)cc(S(=O)(=O)c4ccccc4)cc3c2C1 [Example 145] | 66 nM
O=S(=O)(c1ccccc1)c1cc(Cl)c2oc3c(c2c1)CN(CCO)CC3 [Example 146] | 1.6 nM
CC(C)(O)CN1CCc2oc3c(Cl)cc(S(=O)(=O)c4ccccc4)cc3c2C1 [Example 147] | 1.2 nM
CN(C)C(=O)CN1CCc2oc3c(Cl)cc(S(=O)(=O)c4ccccc4)cc3c2C1 [Example 148] | 45 nM
COCCN1CCc2oc3c(Cl)cc(S(=O)(=O)c4ccccc4)cc3c2C1 [Example 149] | 1.6 nM
O=S(=O)(c1ccccc1)c1cc(Cl)c2oc3c(c2c1)CN(C1COC1)CC3 [Example 150] | 76 nM
CC(O)CN1CCc2oc3c(Cl)cc(S(=O)(=O)c4ccccc4)cc3c2C1 (centres unmarked) [Example 151] | 1.7 nM
CC(CO)N1CCc2oc3c(Cl)cc(S(=O)(=O)c4ccccc4)cc3c2C1 (centres unmarked) [Example 152] | 3.4 nM
O=S(=O)(c1cc(Cl)c2oc3c(c2c1)CNCC3)c1ccccc1C(F)(F)F [Example 153] | 6.1 nM
O=S(=O)(c1ccc(C2CCOC2)cc1)c1cc(Cl)c2oc3c(c2c1)CNCC3 (centres unmarked) [Example 154] | 5.6 nM
CC(=O)N1CCc2oc3c(Cl)cc(S(=O)(=O)c4cn(C)c5ccccc45)cc3c2C1 [Example 155] | 167 nM
O=S(=O)(c1ccc2c(c1)COC2)c1cc(Cl)c2oc3c(c2c1)CNCC3 [Example 156] | 7.6 nM

Compound | Ki
C=C(C)c1cccc(S(=O)(=O)c2cc(Cl)c3oc4c(c3c2)CNCC4)c1 [Example 157] | 0.66 nM
COc1cc(S(=O)(=O)c2ccc3c(c2)CCOC3)cc2c3c(oc12)CCNC3 [Example 158] | 0.48 nM
COc1cc(S(=O)(=O)c2ccccc2CO)cc2c3c(oc12)CCNC3 [Example 159] | 1.5 nM
COc1cc(S(=O)(=O)c2cccc(OC(F)F)c2)cc2c3c(oc12)CCNC3 [Example 160] | 0.11 nM
COc1cc(S(=O)(=O)c2ccc(F)c(F)c2)cc2c3c(oc12)CCNC3 [Example 161] | 0.32 nM
COc1cc(S(=O)(=O)c2ccc(C(F)(F)F)cc2)cc2c3c(oc12)CCNC3 [Example 162] | 0.49 nM
COc1cc(S(=O)(=O)c2ccccc2F)cc2c3c(oc12)CCNC3 [Example 163] | 0.19 nM
COc1cc(S(=O)(=O)c2ccc(OC(F)F)cc2)cc2c3c(oc12)CCNC3 [Example 164] | 0.4 nM
COc1cc(S(=O)(=O)c2ccc(OC(F)(F)F)cc2)cc2c3c(oc12)CCNC3 [Example 165] | 1.9 nM
COc1cc(S(=O)(=O)c2cccc(F)c2)cc2c3c(oc12)CCNC3 [Example 166] | 0.2 nM
COc1cc(S(=O)(=O)c2cccc(C(F)(F)F)c2)cc2c3c(oc12)CCNC3 [Example 167] | 0.13 nM
COc1cc(S(=O)(=O)c2cccc(OC(F)(F)F)c2)cc2c3c(oc12)CCNC3 [Example 168] | 0.19 nM
COc1cc(S(=O)(=O)c2ccc(F)cc2)cc2c3c(oc12)CCNC3 [Example 169] | 0.75 nM
COc1cc(S(=O)(=O)c2ccc(C(C)O)cc2)cc2c3c(oc12)CCNC3 (centres unmarked) [Example 170] | 2.9 nM
COc1cc(S(=O)(=O)c2ccc([C@H](C)O)cc2)cc2c3c(oc12)CCNC3 [Example 171] | 8.6 nM
COc1cc(S(=O)(=O)c2ccc([C@@H](C)O)cc2)cc2c3c(oc12)CCNC3 [Example 172] | 1.9 nM
COc1cc(S(=O)(=O)c2cccc(C(C)O)c2)cc2c3c(oc12)CCNC3 (centres unmarked) [Example 173] | 0.6 nM
COc1cc(S(=O)(=O)c2cccc([C@@H](C)O)c2)cc2c3c(oc12)CCNC3 [Example 174] | 0.69 nM
COc1cc(S(=O)(=O)c2cccc([C@H](C)O)c2)cc2c3c(oc12)CCNC3 [Example 175] | 1.2 nM
COc1cc(S(=O)(=O)c2ccc(C(C)(C)O)cc2)cc2c3c(oc12)CCNC3 [Example 176] | 0.74 nM
COc1cc(S(=O)(=O)c2cccc(C(C)(C)O)c2)cc2c3c(oc12)CCNC3 [Example 177] | 0.35 nM
COc1cc(S(=O)(=O)c2cccc(C(O)C(F)(F)F)c2)cc2c3c(oc12)CCNC3 (centres unmarked) [Example 178] | 0.32 nM
COc1cc(S(=O)(=O)c2ccc(C3CCOC3)cc2)cc2c3c(oc12)CCNC3 (centres unmarked) [Example 180] | 2.2 nM
COc1cc(S(=O)(=O)c2cn(C)c3ccccc23)cc2c3c(oc12)CCNC3 [Example 183] | 0.16 nM
COc1cc(S(=O)(=O)c2ccc3sccc3c2)cc2c3c(oc12)CCNC3 [Example 184] | 0.16 nM
COc1cc(S(=O)(=O)c2csc3ccccc23)cc2c3c(oc12)CCNC3 [Example 185] | 0.1 nM

Compound | Ki
COc1cc(S(=O)(=O)c2cc(F)cc(F)c2)cc2c3c(oc12)CCNC3 [Example 186] | 0.33 nM
COc1cc(S(=O)(=O)c2ccsc2)cc2c3c(oc12)CCNC3 [Example 187] | 0.27 nM
COc1cc(S(=O)(=O)c2cc(F)cc(Cl)c2)cc2c3c(oc12)CCNC3 [Example 188] | 0.11 nM
COc1cc(S(=O)(=O)c2ccc(Cl)cc2)cc2c3c(oc12)CCNC3 [Example 189] | 0.28 nM
COc1cc(S(=O)(=O)c2cccc(Cl)c2)cc2c3c(oc12)CCNC3 [Example 190] | 0.05 nM
COc1cc(S(=O)(=O)c2cc(Cl)cc(Cl)c2)cc2c3c(oc12)CCNC3 [Example 191] | 0.23 nM
COc1cc(S(=O)(=O)c2cccs2)cc2c3c(oc12)CCNC3 [Example 192] | 0.17 nM
COc1cc(S(=O)(=O)c2ccc3c(c2)COC3)cc2c3c(oc12)CCNC3 [Example 193] | 0.8 nM
Cc1cc(S(=O)(=O)c2ccccc2F)cc2c3c(oc12)CCNC3 [Example 194] | 0.39 nM
Cc1cc(S(=O)(=O)c2cccc(Cl)c2)cc2c3c(oc12)CCNC3 [Example 195] | 0.28 nM
Cc1cc(S(=O)(=O)c2ccc(Cl)cc2)cc2c3c(oc12)CCNC3 [Example 196] | 1.1 nM
Cc1cc(S(=O)(=O)c2cc(F)cc(F)c2)cc2c3c(oc12)CCNC3 [Example 197] | 1.3 nM
Cc1cc(S(=O)(=O)c2cc(Cl)cc(Cl)c2)cc2c3c(oc12)CCNC3 [Example 198] | 1.2 nM
Cc1cc(S(=O)(=O)c2ccc(F)c(F)c2)cc2c3c(oc12)CCNC3 [Example 199] | 2 nM
Cc1cc(S(=O)(=O)c2cccc(F)c2)cc2c3c(oc12)CCNC3 [Example 200] | 0.5 nM
Cc1cc(S(=O)(=O)c2cccc(C(F)(F)F)c2)cc2c3c(oc12)CCNC3 [Example 201] | 0.22 nM
Cc1cc(S(=O)(=O)c2cccc(OC(F)F)c2)cc2c3c(oc12)CCNC3 [Example 202] | 0.3 nM
Cc1cc(S(=O)(=O)c2ccc(F)cc2)cc2c3c(oc12)CCNC3 [Example 203] | 1.5 nM
Cc1cc(S(=O)(=O)c2ccc3sccc3c2)cc2c3c(oc12)CCNC3 [Example 204] | 0.23 nM
O=S(=O)(c1ccccc1)c1cc(C(F)(F)F)c2oc3c(c2c1)CNCC3 [Example 205] | 2.1 nM
O=S(=O)(c1cccc(C(F)(F)F)c1)c1cc(F)c2oc3c(c2c1)CNCC3 [Example 206] | 5.9 nM
O=S(=O)(c1ccc(F)cc1)c1cc(F)c2oc3c(c2c1)CNCC3 [Example 207] | 44 nM
N#Cc1cc(S(=O)(=O)c2cc(F)cc(F)c2)cc2c3c(oc12)CCNC3 [Example 208] | 50 nM
N#Cc1cc(S(=O)(=O)c2ccc(F)cc2)cc2c3c(oc12)CCNC3 [Example 209] | 18 nM
N#Cc1cc(S(=O)(=O)c2ccccc2)cc2c3c(oc12)CCNC3 [Example 210] | 4.2 nM
